Experimental data reported in patent publication US8614211B2, “Certain chemical entities, compositions, and methods” (NeuPharma, Inc., priority 2011, dated 2013).
Read-outs that look alike come from different tables or passages of the source.

Tested on: A549 cells
Experiment: Inhibition of cell growth in tumor cells, MTT assay
Type: cell-based
Conditions: Homo sapiens, read-out: A549 cell IC50
Description: Inhibition of cell growth by compounds was measured using MTT assay (Mosmann, T., Journal of Immunological Methods, 1983, 65, 55-63). Tumor cell lines were purchased from ATCC (American Type Culture Collection, Manassas, Va.). All cell lines were maintained in RPMI 1640 (Hyclone) supplemented with 10% fetal bovine serum (FBS, Hyclone), glutamine (2 mM, Hyclone), and antibiotics (penicillin 100 U/mL and streptomycin 50 μg/mL) at 37° C. in a humidified atmosphere of 5% CO2 in air. Taxol (positive control, Sigma) and compounds were dissolved in DMSO (Sigma), and the final concentration of DMSO in the medium was 1%. Tumor cells were plated in 96-well plates at densities from 4000 cells/well of a 96-well plate and allowed to adhere/grow for 24 h. They were then treated with various concentrations of drug for 72 h. 3-(4,5-Dimethylthiazol-2-yl)-2,5-diphenyltetrazolium bromide (MTT, Sigma) was used to determine the number of viable cells at the time of compound addition and the number of cells remaining after 72 h compound exposure. The number of cells remaining after 72 h was compared to the number of viable cells at the time of compound addition by measuring the absorbance at 570 nm, allowing for the calculation of growth inhibition.
All concentrations of compounds were tested in triplicate and controls were averaged over 4 wells. IC50 was calculated by plotting the concentration of compound vs the percentage of inhibition in treated wells using GraphPad Prism 5. […]

[1] = MTT assay, 72 h compound exposure, A549 cells

Compound	IC50 (A549, 72 h)	IC50 [1]
COCCN1CCN(C(=O)Oc2ccc(C[C@H]3C(=O)OC[C@@H]3Cc3ccc(OC)c(OC)c3)cc2OC)CC1 [4-(((3R,4R)-4-(3,4-dimethoxybenzyl)-2-oxotetrahydrofuran-3-yl)methyl)-2-methoxyphenyl 4-(2-methoxyethyl)piperazine-1-carboxylate]	788 nM	
COc1ccc(C[C@H]2COC(=O)[C@@H]2Cc2ccc(OC(=O)N3CCN(C)CC3)c(OC)c2)cc1OC [4-(((3R,4R)-4-(3,4-dimethoxybenzyl)-2-oxotetrahydrofuran-3-yl)methyl)-2-methoxyphenyl 4-methylpiperazine-1-carboxylate]	850 nM	
COc1ccc(C[C@H]2COC(=O)[C@@H]2Cc2ccc(OC(=O)N(C)CCN(C)C)c(OC)c2)cc1OC [4-(((3R,4R)-4-(3,4-dimethoxybenzyl)-2-oxotetrahydrofuran-3-yl)methyl)-2-methoxyphenyl (2-(dimethylamino)ethyl)(methyl)carbamate]	1020 nM	
COc1ccc(C[C@H]2COC(=O)[C@@H]2Cc2ccc(OC(=O)N(C)CCO)c(OC)c2)cc1OC [4-(((3R,4R)-4-(3,4-dimethoxybenzyl)-2-oxotetrahydrofuran-3-yl)methyl)-2-methoxyphenyl (2-hydroxyethyl)(methyl)carbamate]	1070 nM	
COCCN(C)C(=O)Oc1ccc(C[C@H]2C(=O)OC[C@@H]2Cc2ccc(OC)c(OC)c2)cc1OC [4-(((3R,4R)-4-(3,4-dimethoxybenzyl)-2-oxotetrahydrofuran-3-yl)methyl)-2-methoxyphenyl (2-methoxyethyl)(methyl)carbamate]	687 nM	
COc1ccc(C[C@H]2COC(=O)[C@@H]2Cc2ccc(OC(=O)N(C)C)c(OC)c2)cc1OC [4-(((3R,4R)-4-(3,4-dimethoxybenzyl)-2-oxotetrahydrofuran-3-yl)methyl)-2-methoxyphenyl dimethylcarbamate]	521 nM	
COc1ccc(C[C@H]2COC(=O)[C@@H]2Cc2ccc(OC(=O)N3CCOCC3)c(OC)c2)cc1OC [4-(((3R,4R)-4-(3,4-dimethoxybenzyl)-2-oxotetrahydrofuran-3-yl)methyl)-2-methoxyphenyl morpholine-4-carboxylate]		767 nM
COc1ccc(C[C@H]2COC(=O)[C@@H]2Cc2ccc(OC(=O)N3CCNCC3)c(OC)c2)cc1OC [4-(((3R,4R)-4-(3,4-dimethoxybenzyl)-2-oxotetrahydrofuran-3-yl)methyl)-2-methoxyphenyl piperazine-1-carboxylate]	799 nM	
COc1ccc(C[C@H]2COC(=O)[C@@H]2Cc2ccc(OC(=O)N3CCCCC3)c(OC)c2)cc1OC [4-(((3R,4R)-4-(3,4-dimethoxybenzyl)-2-oxotetrahydrofuran-3-yl)methyl)-2-methoxyphenyl piperidine-1-carboxylate]		659 nM
COc1ccc(C[C@H]2COC(=O)[C@@H]2Cc2ccc(OC(=O)N3CCCC3)c(OC)c2)cc1OC [4-(((3R,4R)-4-(3,4-dimethoxybenzyl)-2-oxotetrahydrofuran-3-yl)methyl)-2-methoxyphenyl pyrrolidine-1-carboxylate]		785 nM
COc1ccc(C[C@H]2COC(=O)[C@@H]2Cc2ccc(OC(=O)N3CC[C@@H](NC(=O)OC(C)(C)C)C3)c(OC)c2)cc1OC [(R)-4-(((3R,4R)-4-(3,4-dimethoxybenzyl)-2-oxotetrahydrofuran-3-yl)methyl)-2-methoxyphenyl 3-((tert-butoxycarbonyl)amino) pyrrolidine-1-carboxylate]		585 nM
COc1ccc(C[C@H]2COC(=O)[C@@H]2Cc2ccc(OC(=O)N3CC[C@@H](O)C3)c(OC)c2)cc1OC [(R)-4-(((3R,4R)-4-(3,4-dimethoxybenzyl)-2-oxotetrahydrofuran-3-yl)methyl)-2-methoxyphenyl 3-hydroxypyrrolidine-1-carboxylate]		587 nM
COc1ccc(C[C@H]2COC(=O)[C@@H]2Cc2ccc(OC(=O)N3CC[C@H](N)C3)c(OC)c2)cc1OC [(S)-4-(((3R,4R)-4-(3,4-dimethoxybenzyl)-2-oxotetrahydrofuran-3-yl)methyl)-2-methoxyphenyl 3-aminopyrrolidine-1-carboxylate]	923 nM	
COc1ccc(C[C@H]2COC(=O)[C@@H]2Cc2ccc(OC(=O)N3CC[C@H](O)C3)c(OC)c2)cc1OC [(S)-4-(((3R,4R)-4-(3,4-dimethoxybenzyl)-2-oxotetrahydrofuran-3-yl)methyl)-2-methoxyphenyl 3-hydroxypyrrolidine-1-carboxylate]		841 nM
